Assays:
[1] = tested on: Epidermal growth factor receptor (Homo sapiens), P00533 [T790M]; conditions: Compound concentration 1000.0 nM
[2] = molecular target: Non-receptor tyrosine-protein kinase TYK2 (Homo sapiens) (UniProt P29597); conditions: Compound concentration 1000.0 nM
[3] = molecular target: Serine/threonine-protein kinase Nek10 (Homo sapiens) (UniProt Q6ZWH5); conditions: Compound concentration 1000.0 nM
[4] = molecular target: Insulin receptor (Homo sapiens) (UniProt P06213); conditions: Compound concentration 1000.0 nM
[5] = tested on: Tyrosine-protein kinase ABL1 (Homo sapiens), P00519 [T315I]; conditions: Compound concentration 1000.0 nM
[6] = molecular target: Peripheral plasma membrane protein CASK (Homo sapiens) (UniProt O14936); conditions: Compound concentration 1000.0 nM
[7] = molecular target: Dual specificity protein kinase CLK2 (Homo sapiens) (UniProt P49760); conditions: Compound concentration 1000.0 nM
[8] = molecular target: Rhodopsin kinase GRK1 (Homo sapiens) (UniProt Q15835); conditions: Compound concentration 1000.0 nM
[9] = molecular target: NUAK family SNF1-like kinase 1 (Homo sapiens) (UniProt O60285); conditions: Compound concentration 1000.0 nM
[10] = molecular target: T1, Muscarinic acetylcholine receptor M4 (Homo sapiens) (UniProt P08173); conditions: Compound concentration 10.0 uM
T1 sequence (whole entry): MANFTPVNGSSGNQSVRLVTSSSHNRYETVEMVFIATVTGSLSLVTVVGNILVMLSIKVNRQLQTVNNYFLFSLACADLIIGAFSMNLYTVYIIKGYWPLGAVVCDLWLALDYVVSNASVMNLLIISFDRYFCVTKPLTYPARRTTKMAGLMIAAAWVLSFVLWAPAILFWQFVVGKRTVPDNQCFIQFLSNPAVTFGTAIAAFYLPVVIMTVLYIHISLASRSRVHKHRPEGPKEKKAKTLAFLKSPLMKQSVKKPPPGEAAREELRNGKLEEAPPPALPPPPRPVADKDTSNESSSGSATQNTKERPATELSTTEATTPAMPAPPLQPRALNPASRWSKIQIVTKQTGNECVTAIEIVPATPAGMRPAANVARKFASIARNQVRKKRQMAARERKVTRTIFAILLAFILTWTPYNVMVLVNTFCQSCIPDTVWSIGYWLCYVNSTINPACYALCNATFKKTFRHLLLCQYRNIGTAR

[11] = molecular target: Aurora kinase A (Homo sapiens) (UniProt O14965); conditions: Compound concentration 1000.0 nM
[12] = tested on: Phosphatidylinositol 4,5-bisphosphate 3-kinase catalytic subunit alpha isoform (Homo sapiens), P42336 [E545A]; conditions: Compound concentration 1000.0 nM
[13] = tested on: Tyrosine-protein kinase ABL1 (Homo sapiens), P00519 [Q252H]; conditions: Compound concentration 1000.0 nM
[14] = molecular target: Calcium/calmodulin-dependent protein kinase type II subunit delta (Homo sapiens) (UniProt Q13557); conditions: Compound concentration 1000.0 nM
[15] = molecular target: Mitogen-activated protein kinase kinase kinase 6 (Homo sapiens) (UniProt O95382); conditions: Compound concentration 1000.0 nM
[16] = molecular target: Platelet-derived growth factor receptor alpha (Homo sapiens) (UniProt P16234); conditions: Compound concentration 1000.0 nM
[17] = tested on: Hepatocyte growth factor receptor (Homo sapiens), P08581 [M1250T]; conditions: Compound concentration 1000.0 nM
[18] = molecular target: Serine/threonine-protein kinase RIO1 (Homo sapiens) (UniProt Q9BRS2); conditions: Compound concentration 1000.0 nM
[19] = molecular target: T2, D(4) dopamine receptor (Homo sapiens) (UniProt P21917); conditions: Compound concentration 10.0 uM
T2 sequence (whole entry): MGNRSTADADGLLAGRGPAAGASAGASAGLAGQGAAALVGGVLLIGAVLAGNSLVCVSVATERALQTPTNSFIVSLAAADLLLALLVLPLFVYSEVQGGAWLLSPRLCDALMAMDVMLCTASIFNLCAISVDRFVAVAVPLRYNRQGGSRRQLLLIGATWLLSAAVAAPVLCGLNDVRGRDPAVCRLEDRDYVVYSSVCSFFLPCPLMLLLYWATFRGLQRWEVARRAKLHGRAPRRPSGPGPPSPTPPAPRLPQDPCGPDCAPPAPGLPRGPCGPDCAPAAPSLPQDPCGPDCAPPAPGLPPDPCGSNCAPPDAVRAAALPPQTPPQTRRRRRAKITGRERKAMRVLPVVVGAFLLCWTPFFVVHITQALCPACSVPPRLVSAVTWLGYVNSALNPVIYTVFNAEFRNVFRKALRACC

[20] = molecular target: Proto-oncogene tyrosine-protein kinase receptor Ret (Homo sapiens) (UniProt P07949); conditions: Compound concentration 1000.0 nM
[21] = molecular target: Serine/threonine-protein kinase 24 (Homo sapiens) (UniProt Q9Y6E0); conditions: Compound concentration 1000.0 nM
[22] = molecular target: Serine/threonine-protein kinase Chk1 (Homo sapiens) (UniProt O14757); conditions: Compound concentration 1000.0 nM
[23] = molecular target: Mitogen-activated protein kinase 6 (Homo sapiens) (UniProt Q16659); conditions: Compound concentration 1000.0 nM
[24] = molecular target: 5-hydroxytryptamine receptor 2B (Homo sapiens) (UniProt P41595); conditions: Compound concentration 10.0 uM
[25] = tested on: Mast/stem cell growth factor receptor Kit (Homo sapiens), P10721 [D816V]; conditions: Compound concentration 1000.0 nM
[26] = molecular target: 5-hydroxytryptamine receptor 6 (Homo sapiens) (UniProt P50406); conditions: Compound concentration 10.0 uM
[27] = molecular target: Cyclin-dependent kinase-like 3 (Homo sapiens) (UniProt Q8IVW4); conditions: Compound concentration 1000.0 nM
[28] = molecular target: Hormonally up-regulated neu tumor-associated kinase (Homo sapiens) (UniProt P57058); conditions: Compound concentration 1000.0 nM
[29] = molecular target: Serine/threonine-protein kinase PAK 3 (Homo sapiens) (UniProt O75914); conditions: Compound concentration 1000.0 nM
[30] = molecular target: Cyclin-dependent kinase 14 (Homo sapiens) (UniProt O94921); conditions: Compound concentration 1000.0 nM
[31] = molecular target: Calcium/calmodulin-dependent protein kinase type II subunit gamma (Homo sapiens) (UniProt Q13555); conditions: Compound concentration 1000.0 nM
[32] = molecular target: Homeodomain-interacting protein kinase 4 (Homo sapiens) (UniProt Q8NE63); conditions: Compound concentration 1000.0 nM
[33] = molecular target: RAC-alpha serine/threonine-protein kinase (Homo sapiens) (UniProt P31749); conditions: Compound concentration 1000.0 nM

Insulin receptor (Homo sapiens), sequence (P06213 28-758 limits assumed): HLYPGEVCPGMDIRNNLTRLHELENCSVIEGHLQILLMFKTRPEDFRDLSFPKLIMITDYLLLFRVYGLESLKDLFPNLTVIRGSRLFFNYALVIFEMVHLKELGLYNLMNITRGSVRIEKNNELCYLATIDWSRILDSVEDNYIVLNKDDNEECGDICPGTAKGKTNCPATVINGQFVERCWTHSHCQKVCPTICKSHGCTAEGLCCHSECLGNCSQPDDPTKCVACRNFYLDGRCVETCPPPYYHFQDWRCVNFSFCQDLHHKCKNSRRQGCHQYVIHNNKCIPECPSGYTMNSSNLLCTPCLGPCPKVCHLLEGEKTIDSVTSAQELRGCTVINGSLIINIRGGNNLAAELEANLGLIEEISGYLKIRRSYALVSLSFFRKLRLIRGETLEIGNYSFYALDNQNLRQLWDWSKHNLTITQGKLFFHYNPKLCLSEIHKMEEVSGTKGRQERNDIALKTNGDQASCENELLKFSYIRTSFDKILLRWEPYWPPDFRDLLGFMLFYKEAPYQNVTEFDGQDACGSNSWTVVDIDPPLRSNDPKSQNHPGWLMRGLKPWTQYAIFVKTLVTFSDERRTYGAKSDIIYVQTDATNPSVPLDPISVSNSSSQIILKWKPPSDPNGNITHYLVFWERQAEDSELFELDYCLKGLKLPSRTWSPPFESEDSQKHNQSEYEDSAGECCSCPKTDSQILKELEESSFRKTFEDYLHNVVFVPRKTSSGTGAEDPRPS
Insulin receptor (Homo sapiens), sequence (P06213 763-1382 limits assumed): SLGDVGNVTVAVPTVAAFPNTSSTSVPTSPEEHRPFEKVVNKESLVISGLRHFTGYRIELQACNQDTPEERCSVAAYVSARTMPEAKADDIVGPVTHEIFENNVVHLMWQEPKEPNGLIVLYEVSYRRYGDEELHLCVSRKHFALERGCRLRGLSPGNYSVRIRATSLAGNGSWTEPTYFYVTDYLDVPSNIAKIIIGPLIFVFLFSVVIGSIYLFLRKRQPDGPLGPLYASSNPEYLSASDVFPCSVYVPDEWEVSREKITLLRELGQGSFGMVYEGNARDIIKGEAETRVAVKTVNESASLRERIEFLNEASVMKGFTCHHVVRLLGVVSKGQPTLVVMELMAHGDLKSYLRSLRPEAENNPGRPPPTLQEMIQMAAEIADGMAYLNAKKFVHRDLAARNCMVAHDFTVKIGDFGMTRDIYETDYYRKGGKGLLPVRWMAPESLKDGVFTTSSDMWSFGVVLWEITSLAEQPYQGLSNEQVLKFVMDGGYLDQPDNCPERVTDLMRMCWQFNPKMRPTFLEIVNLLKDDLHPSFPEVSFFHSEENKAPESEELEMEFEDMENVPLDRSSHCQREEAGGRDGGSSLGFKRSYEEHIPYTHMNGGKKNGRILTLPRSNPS
Proto-oncogene tyrosine-protein kinase receptor Ret (Homo sapiens), sequence (P07949 whole entry): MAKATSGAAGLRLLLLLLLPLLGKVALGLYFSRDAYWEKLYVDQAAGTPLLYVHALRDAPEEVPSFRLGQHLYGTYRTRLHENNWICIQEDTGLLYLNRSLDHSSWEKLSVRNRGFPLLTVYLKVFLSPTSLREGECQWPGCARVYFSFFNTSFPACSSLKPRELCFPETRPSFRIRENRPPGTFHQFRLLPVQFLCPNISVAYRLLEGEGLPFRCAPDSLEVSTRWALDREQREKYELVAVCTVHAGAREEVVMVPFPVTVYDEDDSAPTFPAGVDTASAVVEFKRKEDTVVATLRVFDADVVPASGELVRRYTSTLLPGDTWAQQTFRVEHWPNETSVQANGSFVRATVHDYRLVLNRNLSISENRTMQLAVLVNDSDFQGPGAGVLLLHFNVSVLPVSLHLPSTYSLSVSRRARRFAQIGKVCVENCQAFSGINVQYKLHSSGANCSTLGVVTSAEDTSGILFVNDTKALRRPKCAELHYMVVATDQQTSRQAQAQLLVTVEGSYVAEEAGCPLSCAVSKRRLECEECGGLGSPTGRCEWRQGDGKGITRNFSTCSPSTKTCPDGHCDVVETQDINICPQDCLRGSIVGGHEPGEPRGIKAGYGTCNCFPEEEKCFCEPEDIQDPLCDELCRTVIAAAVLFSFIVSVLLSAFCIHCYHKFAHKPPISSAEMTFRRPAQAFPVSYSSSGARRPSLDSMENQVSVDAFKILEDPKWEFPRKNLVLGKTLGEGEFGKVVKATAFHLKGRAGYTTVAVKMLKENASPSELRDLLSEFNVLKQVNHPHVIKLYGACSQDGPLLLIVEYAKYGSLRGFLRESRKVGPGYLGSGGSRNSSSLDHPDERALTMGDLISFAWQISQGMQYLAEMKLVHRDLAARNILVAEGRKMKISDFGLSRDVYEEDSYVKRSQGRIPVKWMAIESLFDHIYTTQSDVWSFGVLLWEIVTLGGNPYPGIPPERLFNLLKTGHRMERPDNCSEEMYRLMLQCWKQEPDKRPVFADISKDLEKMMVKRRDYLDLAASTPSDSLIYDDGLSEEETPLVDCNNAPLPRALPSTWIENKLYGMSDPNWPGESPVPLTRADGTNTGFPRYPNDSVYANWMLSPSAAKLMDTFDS
Serine/threonine-protein kinase RIO1 (Homo sapiens), sequence (Q9BRS2 whole entry): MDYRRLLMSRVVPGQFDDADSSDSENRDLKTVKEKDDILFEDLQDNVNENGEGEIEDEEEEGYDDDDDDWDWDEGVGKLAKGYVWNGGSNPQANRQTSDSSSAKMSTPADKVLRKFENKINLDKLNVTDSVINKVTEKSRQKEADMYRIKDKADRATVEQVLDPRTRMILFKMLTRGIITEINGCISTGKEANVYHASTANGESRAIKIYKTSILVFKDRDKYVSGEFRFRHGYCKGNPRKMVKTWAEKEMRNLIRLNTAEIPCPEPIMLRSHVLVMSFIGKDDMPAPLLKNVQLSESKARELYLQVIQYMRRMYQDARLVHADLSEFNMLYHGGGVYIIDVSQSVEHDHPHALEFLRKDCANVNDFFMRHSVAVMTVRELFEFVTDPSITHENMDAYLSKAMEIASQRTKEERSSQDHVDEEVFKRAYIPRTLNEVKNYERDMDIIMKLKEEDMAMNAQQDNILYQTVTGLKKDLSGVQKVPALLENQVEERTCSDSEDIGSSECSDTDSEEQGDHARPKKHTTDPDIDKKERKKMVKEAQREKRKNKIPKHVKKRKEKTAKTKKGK
Serine/threonine-protein kinase PAK 3 (Homo sapiens), sequence (O75914 whole entry, looked up): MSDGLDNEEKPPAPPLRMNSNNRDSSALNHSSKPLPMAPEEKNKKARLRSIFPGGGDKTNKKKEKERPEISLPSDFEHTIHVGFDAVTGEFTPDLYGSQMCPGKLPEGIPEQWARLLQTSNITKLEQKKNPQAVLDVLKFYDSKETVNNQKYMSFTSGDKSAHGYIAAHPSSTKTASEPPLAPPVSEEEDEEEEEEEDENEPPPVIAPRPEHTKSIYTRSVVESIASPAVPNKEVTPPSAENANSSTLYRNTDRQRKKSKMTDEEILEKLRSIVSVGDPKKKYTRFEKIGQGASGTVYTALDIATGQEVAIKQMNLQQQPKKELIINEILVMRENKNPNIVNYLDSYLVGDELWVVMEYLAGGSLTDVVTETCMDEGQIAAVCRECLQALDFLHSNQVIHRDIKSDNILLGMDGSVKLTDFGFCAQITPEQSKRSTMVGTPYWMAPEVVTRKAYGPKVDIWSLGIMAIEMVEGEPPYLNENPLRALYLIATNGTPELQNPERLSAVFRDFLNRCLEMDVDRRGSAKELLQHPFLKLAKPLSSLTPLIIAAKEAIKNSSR
Serine/threonine-protein kinase Nek10 (Homo sapiens), sequence (Q6ZWH5 whole entry): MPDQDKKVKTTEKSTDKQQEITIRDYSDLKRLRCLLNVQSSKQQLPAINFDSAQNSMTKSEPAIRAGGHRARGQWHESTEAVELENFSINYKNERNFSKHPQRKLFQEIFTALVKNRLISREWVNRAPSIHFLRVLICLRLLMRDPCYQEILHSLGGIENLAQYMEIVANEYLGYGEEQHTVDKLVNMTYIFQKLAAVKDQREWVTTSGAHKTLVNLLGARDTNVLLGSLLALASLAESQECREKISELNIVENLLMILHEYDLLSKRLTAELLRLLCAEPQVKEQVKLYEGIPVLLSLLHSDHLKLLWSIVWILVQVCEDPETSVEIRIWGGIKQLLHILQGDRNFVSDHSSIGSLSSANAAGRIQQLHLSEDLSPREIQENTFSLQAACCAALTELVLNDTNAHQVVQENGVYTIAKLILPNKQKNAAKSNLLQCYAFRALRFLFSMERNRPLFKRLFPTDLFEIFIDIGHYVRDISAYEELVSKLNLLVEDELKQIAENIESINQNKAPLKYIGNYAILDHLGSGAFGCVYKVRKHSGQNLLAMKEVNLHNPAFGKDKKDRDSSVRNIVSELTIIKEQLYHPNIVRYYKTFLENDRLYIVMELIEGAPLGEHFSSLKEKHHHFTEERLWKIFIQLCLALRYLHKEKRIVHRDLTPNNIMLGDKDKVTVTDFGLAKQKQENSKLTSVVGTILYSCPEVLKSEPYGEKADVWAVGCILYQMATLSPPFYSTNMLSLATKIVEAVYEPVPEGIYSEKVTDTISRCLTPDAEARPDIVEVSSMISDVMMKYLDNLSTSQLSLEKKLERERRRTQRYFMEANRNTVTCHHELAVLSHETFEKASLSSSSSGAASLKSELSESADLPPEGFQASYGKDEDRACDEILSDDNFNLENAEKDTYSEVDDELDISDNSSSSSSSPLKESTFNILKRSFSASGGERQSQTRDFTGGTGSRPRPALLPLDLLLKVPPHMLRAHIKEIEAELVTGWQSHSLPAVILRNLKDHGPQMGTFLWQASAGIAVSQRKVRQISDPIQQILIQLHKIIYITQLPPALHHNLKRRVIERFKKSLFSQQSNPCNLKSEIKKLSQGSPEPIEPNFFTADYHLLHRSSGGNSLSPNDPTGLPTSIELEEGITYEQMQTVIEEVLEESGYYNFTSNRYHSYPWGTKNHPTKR

CCC(=N\O)/C(C)=C/c1ccc(F)cc1 [A-079]
inactive: residual activity [1] 100% | residual activity [2] 73% | residual activity [3] 95% | residual activity [4] 100% | residual activity [5] 87% | residual activity [6] 70% | residual activity [7] 78% | residual activity [8] 79% | residual activity [9] 100% | inhibition [10] 18.2% | residual activity [11] 100% | residual activity [12] 76% | residual activity [13] 90% | residual activity [14] 99% | residual activity [15] 63% | residual activity [16] 78% | residual activity [17] 76% | residual activity [18] 80% | inhibition [19] 19.5% | residual activity [20] 100% | residual activity [21] 100% | residual activity [22] 83% | residual activity [23] 73% | inhibition [24] 24.7% | residual activity [25] 87% | inhibition [26] 15.6% | residual activity [27] 80% | residual activity [28] 76% | residual activity [29] 89% | residual activity [30] 91% | residual activity [31] 100% | residual activity [32] 79% | residual activity [33] 82%

CCC(=N\O)/C(C)=C/c1ccc(F)c(C)c1 [A-226]
inactive: residual activity [1] 100% | residual activity [2] 100% | residual activity [3] 100% | residual activity [4] 100% | residual activity [5] 88% | residual activity [6] 100% | residual activity [7] 88% | residual activity [8] 88% | residual activity [9] 96% | inhibition [10] 15.4% | residual activity [11] 82% | residual activity [12] 100% | residual activity [13] 100% | residual activity [14] 100% | residual activity [15] 100% | residual activity [16] 100% | residual activity [17] 88% | residual activity [18] 100% | inhibition [19] 18.6% | residual activity [20] 100% | residual activity [21] 86% | residual activity [22] 83% | residual activity [23] 100% | inhibition [24] 43.8% | residual activity [25] 94% | inhibition [26] -3.93% | residual activity [27] 86% | residual activity [28] 91% | residual activity [29] 63% | residual activity [30] 92% | residual activity [31] 90% | residual activity [32] 91% | residual activity [33] 98%

Reference: ChEMBL document CHEMBL4507256 (2021)
